Measurements from US20240238201A1, “LIPOSOME CARRIER-BASED MULTI-TARGET COMPLEX, DRUG DELIVERY PLATFORM CONTAINING THE SAME, AND APPLICATION THEREOF” (HANGZHOU XINGAO BIOTECHNOLOGY CO., LTD., priority 2021, published 2024).

How the values were obtained:
[1] = tested on: mouse breast cancer cell line 4T1; assay: Subcutaneous graft tumors of mouse breast cancer cell line 4T1 in BalB/C mice, with lung metastasis nodules; assay type: in vivo; conditions: for Average tumor weight (g) / Average tumor suppression rate (%) / Number of metastatic lung nodules: 4T1 in BalB/C mice; for Average tumor weight (g) / Average tumor suppression rate (%): intraperitoneal once a day for 21 days; for Average tumor weight (g): doses of Table 1, n = 10, mean ± SD; for Average tumor suppression rate (%): doses of Table 1, vs negative control; for Number of metastatic lung nodules: lungs after 21 days of dosing, negative control 35; for number of lung tumor nodules compared with the model group (in words): 4T1 breast cancer lung metastasis, lungs fixed with 4% paraformaldehyde
Experimental: (§1) Specie and strain: BalB/C ordinary mice and C57BL/6 ordinary mice.
(§2) Route of administration: intraperitoneal injection.
(§3) Dose of the novel multi-target immune complex: 200 μL/each;
(§4) Dosing frequency: once a day for 21 consecutive days;
(§5) Number of animals per group: 10.
(§6) Used herein are mouse colorectal cancer cell line CT26, mouse breast cancer cell line 4T1 and mouse melanoma cell line B16F10, which were purchased from the cell bank of Chinese Academy of Sciences.
(§7) Cancer cells were cultured, passaged, collected at the logarithmic phase of cells, and prepared into a cell suspension at a concentration of (1.0×10^7) per ml. Mice were injected with 0.2 ml of the cell suspension at the axilla of the right forelimb (cell number 2.0×10^6 cells/each), and tumorigenicity was successful in about 8 days.
(§8) These mice were randomly divided into 11 groups equally, namely, group A: negative control group (PBS group), group B: positive control (cGAMP) group (dose: 10 mg/kg), group C: ENPP1-YZ1 group (dose: 5 mg/kg), group D: ENPP1-YZ2 group (dose: 5 mg/kg), group E: anti-PD-L1 VHH group (dose: 2.5 mg/kg), group F: anti-CD47 VHH group (dose: 2.5 mg/kg), group G: complex I group, group H: complex II group, group I: complex III group, group J: complex IV group, and group K: complex V group. The mice were administered once a day for 21 days. After 21 days, the mice were executed, the tumor weight was weighed, and the tumor inhibition rate was calculated by [1-average tumor weight of experimental groups (groups B, C, D, E, F, G, H, I, J, and K)/average tumor weight of group A]×100%.
(§9) The mouse colorectal cancer cell line CT26 was prepared and injected into BalB/C ordinary mice. The mouse breast cancer cell line 4T1 was prepared and injected into BalB/C ordinary mice. The melanoma cell line B16F0 was prepared and injected into C57BL/6 ordinary mice. The anti-tumor effects of different drugs were observed.
(§10) Data were expressed as x±s and processed using a SPSS 10.0 software. One-way ANOVA test was used to compare the significance of the differences in tumor weight between groups, with a significance level a=0.05.
Dissections were performed on mice that had been executed for the 4T1 breast cancer study, where the lung tissues were carefully peeled off and photographed for observation after fixation with 4% paraformaldehyde. It could be clearly seen that the lungs of the mice in the model group were black and existed multiple white tumor nodules with various sizes on the surface. […] By statistical analysis of the tumor nodules in the lung tissues of mice, the results of the efficacy of inhibiting the lung metastasis of breast cancer cells were shown in Table 3.

[2] = tested on: mouse melanoma cell line B16F0; assay: Subcutaneous graft tumors of mouse melanoma cell line B16F0 in C57BL/6 mice; assay type: in vivo; conditions: intraperitoneal once a day for 21 days; for Average tumor weight (g): doses of Table 1, n = 10, mean ± SD; for Average tumor suppression rate (%): doses of Table 1, vs negative control
Experimental: as §1, §2, §3, §4, §5, §6, §7, §8, §9, §10

[3] = tested on: murine colorectal cancer cell CT26; assay: Subcutaneous graft tumors of murine colorectal cancer cell CT26 in BalB/C mice; assay type: in vivo, mouse; conditions: intraperitoneal once a day for 21 days; for Average tumor weight (g): doses of Table 1, n = 10, mean ± SD; for Average tumor suppression rate (%): doses of Table 1, vs negative control
Experimental: as §1, §2, §3, §4, §5, §6, §7, §8, §9, §10

2-[(4-methyl-(thiazolo[4,5-B]pyridinyl)-2-thio)methyl]-7-fluoro quinazoline-4(3H)-one [ENPP1-YZ2]
Average tumor weight (g) [1]: 0.852 ± 0.223 (g)
Average tumor suppression rate (%) [1]: 62.5%
Number of metastatic lung nodules [1]: 20
Average tumor weight (g) [2]: 0.926 ± 0.227 (g)
Average tumor suppression rate (%) [2]: 61.2%
Average tumor weight (g) [3]: 0.805 ± 0.218 (g)
Average tumor suppression rate (%) [3]: 64.5%

COc1ccc2[nH]c(SCc3nc4cc(F)ccc4c(=O)[nH]3)nc2n1 [ENPP1-YZ1, 2-[(5-methoxy-(imidazo[4,5-B]pyridinyl)-2-thio)methyl]-7-fluoroquinazoline-4(3H)-one]
Average tumor weight (g) [1]: 0.898 ± 0.136 (g)
Average tumor suppression rate (%) [1]: 60.5%
Number of metastatic lung nodules [1]: 21
Average tumor weight (g) [2]: 0.943 ± 0.208 (g)
Average tumor suppression rate (%) [2]: 60.5%
Average tumor weight (g) [3]: 0.816 ± 0.203 (g)
Average tumor suppression rate (%) [3]: 63.9%

Nc1nc2c(ncn2[C@@H]2O[C@@H]3COP(=O)(O)O[C@H]4[C@@H](O)[C@H](n5cnc6c(N)ncnc65)O[C@@H]4COP(=O)(O)O[C@@H]2[C@@H]3O)c(=O)[nH]1 [cGAMP, cyclic dinucleotide 2′,3′-cGAMP, reference compound]
number of lung tumor nodules compared with the model group (in words) [1]: a decrease in the number of tumor nodules
Average tumor weight (g) [1]: 0.775 ± 0.221 (g)
Average tumor suppression rate (%) [1]: 65.9%
Number of metastatic lung nodules [1]: 12
Average tumor weight (g) [2]: 0.808 ± 0.137 (g)
Average tumor suppression rate (%) [2]: 66.1%
Average tumor weight (g) [3]: 0.706 ± 0.152 (g)
Average tumor suppression rate (%) [3]: 68.8%

B1: Anti-PD-L1 VHH: anti-PD-L1 nanobody, SEQ ID NO: 1, 6His-tagged, expressed in E. coli (protein)
VHH: QVQLQESGGGLVQTGGSLRLSCAASGSTVSSSMMAWWRQTPGNQRELVALVASGNNTNYVDSVKGRFTVSRDNAKNTMYLQMNSLKPEDTAVYYCRILSVNGIWYWGQGTQVTVSS
modifications: 6His tag; Aritifical sequence
number of lung tumor nodules compared with the model group (in words) [1]: a small decrease in the number of tumor nodules
Average tumor weight (g) [1]: 1.752 ± 0.214 (g)
Average tumor suppression rate (%) [1]: 22.9%
Number of metastatic lung nodules [1]: 27
Average tumor weight (g) [2]: 1.758 ± 0.212 (g)
Average tumor suppression rate (%) [2]: 26.3%
Average tumor weight (g) [3]: 1.735 ± 0.206 (g)
Average tumor suppression rate (%) [3]: 23.4%

B2: Anti-CD47 VHH: anti-CD47 nanobody, SEQ ID NO: 2, 6His-tagged, expressed in E. coli (protein)
VHH: QVQLVESGGGLVEPGGSLRLSCAASGIIFKINDMGWYRQAPGKRREWVAASTGGDEAIYRDSVKDRFTISRDAKNSVFLQMNSLKPEDTAVYYCTAVISTDRDGTEWRRYWGQGTQVTVSS
modifications: 6His tag
number of lung tumor nodules compared with the model group (in words) [1]: a small decrease in the number of tumor nodules
Average tumor weight (g) [1]: 1.805 ± 0.176 (g)
Average tumor suppression rate (%) [1]: 20.2%
Number of metastatic lung nodules [1]: 25
Average tumor weight (g) [2]: 1.809 ± 0.217 (g)
Average tumor suppression rate (%) [2]: 24.2%
Average tumor weight (g) [3]: 1.807 ± 0.187 (g)
Average tumor suppression rate (%) [3]: 20.2%
